According to BindingDB's records for doi:10.1016/j.ejmech.2022.114542 (National Institute of Pharmaceutical Education and …, 2022):

Assay: Inhibition of ABCG2 efflux pump in multi-drug resistance human HL-60 cells assessed as reversal of daunorubicin sensitivity

IC50: 4.44 µM
Compound: CO[C@@H]1[C@H](N(C)C(=O)c2ccccc2)C[C@H]2O[C@]1(C)n1c3ccccc3c3c4c(c5c6ccccc6n2c5c31)C(=O)NC4 [PKC-412]
